{"source": "patent US7951364B2", "about": "“CaR receptor as a mediator of migratory cell chemotaxis and/or chemokinesis” (The General Hospital Corporation, priority 2000, dated 2011)", "molecules": {"B1": {"name": "MIP-1α: chemokine (PeproTech) (protein, UniProt P10147 24-92, looked up)", "C-C motif chemokine 3": "SLAADTPTACCFSYTSRQIPQNFIADYFETSSQCSKPGVIFLTKRSRQVCADPSEEWVQKYVSDLELSA"}}, "key": {"CaR [1]": {"biological_target": "T1, CaR (Homo sapiens, UniProt P41180)", "T1 construct": "endogenous in cells; host or cells: peripheral blood CD14+ monocytes, sorted by FACS", "T1 sequence (P41180 20-1078)": "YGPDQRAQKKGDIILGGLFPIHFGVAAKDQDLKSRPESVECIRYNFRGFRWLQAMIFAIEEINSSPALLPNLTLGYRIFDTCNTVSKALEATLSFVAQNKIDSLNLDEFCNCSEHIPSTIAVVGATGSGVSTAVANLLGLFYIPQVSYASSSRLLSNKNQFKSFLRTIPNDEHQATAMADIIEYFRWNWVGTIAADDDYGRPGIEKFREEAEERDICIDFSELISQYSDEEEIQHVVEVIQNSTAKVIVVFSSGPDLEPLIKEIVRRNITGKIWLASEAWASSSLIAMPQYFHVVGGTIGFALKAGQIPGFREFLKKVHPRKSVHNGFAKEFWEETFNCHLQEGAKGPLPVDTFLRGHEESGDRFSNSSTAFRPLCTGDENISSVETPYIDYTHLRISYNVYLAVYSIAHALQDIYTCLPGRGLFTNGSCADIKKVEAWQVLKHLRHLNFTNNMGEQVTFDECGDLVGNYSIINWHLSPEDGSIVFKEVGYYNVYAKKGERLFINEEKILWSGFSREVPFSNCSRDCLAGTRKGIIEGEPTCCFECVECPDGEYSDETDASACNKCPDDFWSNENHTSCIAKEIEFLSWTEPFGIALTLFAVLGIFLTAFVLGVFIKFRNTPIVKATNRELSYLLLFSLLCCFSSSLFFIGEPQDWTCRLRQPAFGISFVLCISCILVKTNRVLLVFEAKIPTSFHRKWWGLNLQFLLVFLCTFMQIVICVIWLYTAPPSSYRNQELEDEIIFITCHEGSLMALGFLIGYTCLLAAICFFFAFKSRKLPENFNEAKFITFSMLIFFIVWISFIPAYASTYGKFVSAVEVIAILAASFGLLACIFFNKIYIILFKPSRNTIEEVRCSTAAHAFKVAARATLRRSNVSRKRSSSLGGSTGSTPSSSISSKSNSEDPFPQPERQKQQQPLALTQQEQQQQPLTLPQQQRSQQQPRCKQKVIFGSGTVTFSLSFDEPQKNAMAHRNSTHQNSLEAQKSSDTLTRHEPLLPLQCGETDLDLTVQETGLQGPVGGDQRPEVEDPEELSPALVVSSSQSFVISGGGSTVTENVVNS", "test": "Cytosolic calcium changes in purified monocytes (Indo-1/AM, flow cytometry)", "type": "cell-based", "settings": "for Increase in cytosolic calcium: 1 μM in the presence of 1.5 mM Ca^++; for Stimulation of cytosolic calcium responses: monocytes", "description": "(§1) Preparation of peripheral blood CD14^+ monocytes. Low density cells were isolated from human and mouse peripheral blood using Ficoll-Hypaque (Pharmacia, Piscataway, N.J.). CD14^+ monocytes were purified by sorting on FACSVantage (Becton Dickinson, San Jose, Calif.) based on CD14 expression. Purified cells were incubated in either calcium-free medium (Hanks' Balanced Salt Solution 1×, CellGro, Hermdon. VA) or Iscove's Medium 1×(Mod) (CellGro, Herndon, Va.) which contains 1.5 mM Ca++. […] Cells were incubated for up to 24 hours in 5% CO2 humidified air. Monocytes were then detached from the plate using a cell scraper. All calcium concentrations indicated in the presentation of the data represent the total Ca^++ present in the basal medium plus any added Ca^++.\nCytosolic calcium changes. Purified monocytes were loaded with Indo-1/AM (Molecular Probes, Eugene, Oreg.). Cells were collected on FACSVantage for 0.30 sec to establish a baseline emission value for Indo-1/AM. […] Data acquisition then continued for up to 5 minutes."}, "CD14^+ monocytes": {"system": "CD14^+ monocytes", "test": "Transmigration assay (monocyte chemotaxis, transwell)", "type": "cell-based, human", "settings": "for Stimulation of transmigration: monocytes; for Inhibition of monocyte chemotaxis towards a positive gradient of Ca^++ by pretreatment: Ca^++ at 3 mM; for Interaction of chemokine with added/elevated Ca^++ on transmigration: chemokine in combination with elevated Ca^++; for Dependence of chemokine-induced chemotaxis of CD14^+ PBMC on extracellular calcium: positive concentration gradient of chemokine", "description": "as §1\n(§2) Transmigration assays. Transwells (5 μm pore size polycarbonate membrane, 12 mm diameter) (Costar, Corning, N.Y.) were used to assess cell migration using an established methodology (25). The concentration of Ca^++ in IMDM (CellGro, Herndon, Va.) in the upper and lower chambers of the transwell were adjusted according to a checkerboard analysis of chemotaxis. Calcium concentrations varied from 0 mM to 6.5 mM. Purified monocytes (1×10^4) were then placed in the top chamber with 150 μl of IMDM (CellGro, Hemdon, Va.). 500 μl of the medium was added to the bottom of the well and supplemented with varying concentrations of Ca^++ or with Ca^++ plus 10 ng/ml of MCP-1, 100 ng/ml of SDF-1α or 10 ng/ml of MIP-1α (PeproTech, Rocky Hills, N.Y.). Cells were incubated at 37° C. for 3 hours. To study inhibition of chemotaxis, cells were subsequently incubated with wortmannin (1 μM for 20 minutes at 37° C.), herbimycin (1 μM for 20 minutes at 37° C.) or genistein (1 μg/ml for 20 minutes at 37° C.), before their use in transmigration assays. At the end of the experiment, cells were then harvested from the lower chamber and counted using a hemocytometer."}, "CCR-2": {"system": "CCR-2", "test": "Chemokine receptor expression on monocytes by flow cytometry: CCR-2", "type": "cell-based, human", "settings": "for Mean fluorescent intensity -CCR-2 Mean +/− s.e.m.: CD14^+ monocytes, agonist 1 μM in the presence of 1.5 mM Ca^++", "description": "(§3) Chemokine receptor expression and flow cytometric analysis.\nTable 1: Exposure of CD14^+ monocytes to Ca^++ enhances CCR2 expression in a dose dependent manner. Monocytes were exposed to varying concentrations of Ca^++ and to the selective CaR activator, NPS R-467 (1 μM), or to NPS S-467 (1 μM) in the presence of 1.5 mM Ca^++. The median fluorescence intensity for CCR2 expression was measured for each Ca^++ concentration and in the presence of NPS R-467 or S-467. Mean values +/−s.e.m. from three independent experiments are shown."}, "[2]": {"system": "monocytes (Mac-1 positive mononuclear cells)", "test": "Biologic activity in vivo: subcutaneous injection, monocyte infiltration at injection site", "parameters": "species or system C57BL/6 mice", "settings": "tissue excised 18 hours later, CaCl2 5.0 mM, NPS R-467 10 μM", "description": "Biologic activity of ionic calcium in vivo. C57BL/6 mice (Jackson Laboratories) were injected subcutaneously at a marked, shaved spot on the abdomen with 20 μl of 5 mM CaCl2 or 20 μl of MCP-1 at a concentration of 10 ng/ml, with a combination of MCP-1 and 5 mM CaCl2 or with 10 μM NPS R-467 in PBS. Control mice were injected subcutaneously with 20 μl PBS alone. All subcutaneously injected agents contained less than 0.004 ng/ml of LPS by the limulus assay (Sigma) as previously described (Bleul, C. C., et al., J Exp Med, 1996, 184:1101-1109). Mice were sacrificed by CO2 asphyxiation 18 hours after injection, and injection sites were excised, snap-frozen and 4 μm cryosections were obtained and stained with hematoxylin and eosin. Immunocytochemistry was performed on the frozen sections using alkaline phosphatase-conjugated Mac-1 antibody (Pharmingen) as previously described and assessed by light microscopy (Bleul, C. C., et al., supra)."}, "[3]": {"system": "mononuclear cells derived from neonatal CaR −/−, +/− or +/+ mice", "test": "Transmigration assay with cells from CaR knockout and wild-type mice", "type": "cell-based, mouse", "settings": "CaR −/−, +/− or +/+ cells", "description": "as §2\nCaR−/− were bred as previously described (Ho, C., et al., Nat Genet 1995, 11:389-94). To produce CaR−/− mice for this study, heterozygote mice were intercrossed. The mice studied were either 129S6/svev or 129S6/svev/Swiss Webster mixed genetic background. […]"}, "CaR [4]": {"system": "CaR", "test": "CaR surface expression on monocytes after exposure to chemokines", "type": "cell-based, human", "settings": "monocytes after chemokine stimulation; untreated 361+/−25", "source_text": "as §3\nIn order to assess whether there was reciprocal regulation of the CaR by chemokine receptors, we evaluated CaR surface expression on cells before and after exposure to the chemokines, SDF-1α or MCP-1. The mean fluorescence intensity of CaR expression was 361+/−25 (mean+/−s.e.m.) units for untreated monocytes and rose to 673+/−59 following MCP-1 stimulation. Monocytic expression of CaR rose to 519+/−48 with SDF-1α a treatment."}, "human CD34^+ cells": {"system": "human CD34^+ cells", "test": "In vitro assays of human CD34^+ hematopoietic progenitor cells", "type": "cell-based", "settings": "in the setting of CaR activation", "source_text": "Calcium ions effect Hematopoietic Progenitor Cells. We also assessed the effects of calcium, through its interaction with the calcium sensing receptor (CaR) using in vitro assays of human CD34^+ cells. […] Therefore, calcium participates in maintaining candidate stem cells in a primitive, undifferentiated state. […] This was accompanied by a decrease in the level of LTC-ICs in the bone marrow, but an increase in the level of CFU-Cs, with a converse increase in hematopoietic stem cells in is the peripheral blood."}}}
{"molecule": "COc1cccc([C@@H](C)NCCCc2ccccc2)c1", "note": "[NPS R-467, reference compound]", "values": [{"measurement": "Increase in cytosolic calcium", "setting": "CaR [1]", "value": "Sustained increases"}, {"measurement": "Stimulation of cytosolic calcium responses", "setting": "CaR [1]", "value": "Stimulation"}, {"measurement": "Potency of R-467 vs. S-467 in enhancing actions of high Ca^++ (cytosolic calcium, chemotaxis)", "setting": "CD14^+ monocytes", "value": "greater potency"}, {"measurement": "Stimulation of transmigration", "setting": "CD14^+ monocytes", "value": "Stimulation"}, {"measurement": "Mean fluorescent intensity -CCR-2 Mean +/− s.e.m.", "setting": "CCR-2", "value": "460 +/− 52"}, {"measurement": "Accumulation of mononuclear cells staining positive for Mac-1 at injection site", "setting": "[2]", "value": "Accumulation"}]}
{"molecule": "COc1cccc([C@H](C)NCCCc2ccccc2)c1", "note": "[NPS S-467, reference compound]", "values": [{"measurement": "Increase in cytosolic calcium", "setting": "CaR [1]", "value": "Sustained increases"}, {"measurement": "Stimulation of cytosolic calcium responses", "setting": "CaR [1]", "value": "Stimulation"}, {"measurement": "Stimulation of transmigration", "setting": "CD14^+ monocytes", "value": "Stimulation"}, {"measurement": "Mean fluorescent intensity -CCR-2 Mean +/− s.e.m.", "setting": "CCR-2", "value": "417 +/− 48"}]}
{"molecule": "C[C@@H]1C[C@@H]([C@H](O)CC2CC(=O)NC(=O)C2)C(=O)[C@@H](C)C1", "note": "[cyclohexamide, reference compound]", "values": [{"measurement": "Effect on the Ca^++-mediated upregulation of CCR-2", "setting": "CCR-2; inhibition of new protein synthesis", "value": "no effect"}]}
{"molecule": "O=c1c(-c2ccc(O)cc2)coc2cc(O)cc(O)c12", "note": "[genistein, reference compound]", "values": [{"measurement": "Inhibition of Ca^++-induced monocyte chemotaxis by pretreatment", "setting": "CD14^+ monocytes", "value": "inhibitable"}, {"measurement": "Inhibition of monocyte chemotaxis towards a positive gradient of Ca^++ by pretreatment", "setting": "CD14^+ monocytes", "value": "inhibitable"}]}
{"molecule": "CO[C@H]1[C@@H](OC)C[C@H](C)[C@@H](OC)C2=CC(=O)C=C(NC(=O)/C(C)=C/C=C\\[C@H](OC)[C@@H](OC(N)=O)/C(C)=C/[C@@H]1C)C2=O", "note": "[herbimycin, reference compound]", "values": [{"measurement": "Inhibition of Ca^++-induced monocyte chemotaxis by pretreatment", "setting": "CD14^+ monocytes", "value": "inhibitable"}, {"measurement": "Inhibition of monocyte chemotaxis towards a positive gradient of Ca^++ by pretreatment", "setting": "CD14^+ monocytes", "value": "inhibitable"}]}
{"molecule": "NCCCNCCCCNCCCN", "note": "[spermine, reference compound]", "values": [{"measurement": "Stimulation of cytosolic calcium responses", "setting": "CaR [1]", "value": "Stimulation"}, {"measurement": "Stimulation of transmigration", "setting": "CD14^+ monocytes", "value": "Stimulation"}]}
{"molecule": "MCP-1: chemokine (PeproTech), ligand of CCR-2", "values": [{"measurement": "Interaction of chemokine with added/elevated Ca^++ on transmigration", "setting": "CD14^+ monocytes", "value": "synergistic"}, {"measurement": "Dependence of chemokine-induced chemotaxis of CD14^+ PBMC on extracellular calcium", "setting": "CD14^+ monocytes", "value": "dependent upon extracellular calcium"}, {"measurement": "Chemotaxis of mouse mononuclear cells", "setting": "[3]", "value": "capable of chemotaxing"}, {"measurement": "Mean fluorescence intensity of CaR expression (mean+/−s.e.m.)", "setting": "CaR [4]", "value": "673+/−59 units"}, {"measurement": "Accumulation of mononuclear cells staining positive for Mac-1 at injection site", "setting": "[2]", "value": "Accumulation"}]}
{"molecule": "SDF-1α", "values": [{"measurement": "Interaction of chemokine with added/elevated Ca^++ on transmigration", "setting": "CD14^+ monocytes", "value": "no synergistic effect"}, {"measurement": "Dependence of chemokine-induced chemotaxis of CD14^+ PBMC on extracellular calcium", "setting": "CD14^+ monocytes", "value": "induced migration independent of calcium"}, {"measurement": "Mean fluorescence intensity of CaR expression (mean+/−s.e.m.)", "setting": "CaR [4]", "value": "519+/−48 units"}, {"measurement": "Chemotactic responses of primitive hematopoietic cells to SDF-1α", "setting": "human CD34^+ cells", "value": "attenuated"}]}
{"molecule": "B1", "values": [{"measurement": "Interaction of chemokine with added/elevated Ca^++ on transmigration", "setting": "CD14^+ monocytes", "value": "no synergistic effect"}, {"measurement": "Dependence of chemokine-induced chemotaxis of CD14^+ PBMC on extracellular calcium", "setting": "CD14^+ monocytes", "value": "induced migration independent of calcium"}]}
